Article PMC3199744, “Preformulation and stability in biological fluids of the retrocyclin RC-101, a potential anti-HIV topical microbicide” (AIDS Research and Therapy, 2011)

Experiments:
HIV-1 = details: RC-101 at pH 7, data not shown
[1] = UV spectroscopy for aggregation / ionic strength effect; type: physicochemical
Protocol: Changes in the secondary structure of the protein were monitored by Circular dichroism (CD) on an AVIV Circular Dichroism spectrophotometer model 202 (AVIV Biomedical, Lakewood, NJ) equipped with a 0.1 cm path length quartz cell. RC-101 stability was also monitored by using a matrix-assisted laser desorption ionization-time of flight (MALDI-TOF) mass spectrometric (MS) on a Voyager DE-PRO mass spectrometer (Applied Biosystems, Foster City, CA). Potential for aggregation was evaluated by UV-spectroscopy using a NanoDrop ND-1000 spectrophotometer (NanoDrop Technologies Inc, Wilmington, DE).

[2] = Effect of pH on stability of RC-101, HPLC; type: physicochemical; details: 500 μg/mL, HPLC-UV
Protocol: For all pre-formulation studies described below, triplicate solutions of RC-101 (500 μg/mL) were prepared in either water or aqueous buffer solution. Thermal degradation studies were conducted at 25, 37, and 65°C for a minimum period of 1 week. The effect of pH on the stability of RC-101 was evaluated over the pH range from 3 to 12 using 10 mM phosphate buffer solutions, at low (50 mmol/kg) and high (500 mmol/kg) ionic strength. Oxidation of RC-101 was evaluated by exposing a solution of RC-101 to hydrogen peroxide (H2O2) at concentrations of 3.0, 0.08, and 0.002% (v/v). The high H2O2 concentration (3.0%) was selected as a forced degradation concentration. […] Protection against oxidation was investigated by the addition of antioxidants commonly used in pharmaceutical products. The antioxidants used in this study were: methionine (95.2 μg/mL or 250 μg/mL), cysteine (95.2 μg/mL), glutathione (90.9 μg/mL), vitamin E TPGS (90.9 μg/mL), ascorbic acid (1.0 mg/mL), sodium ascorbate (1.0 mg/mL), and EDTA (1.0 μg/mL).
RC-101 concentration after exposure to preformulation conditions was analyzed by HPLC as previously described [11]. Briefly, the HPLC system (Waters Corporation, Milford, MA) was equipped with an autoinjector model 717, a quaternary pump model 600, and an ultraviolet (UV) detector model 2487 set up at 215 nm. Separation of RC-101 from degradant products was achieved using a Phenomenex Jupiter 5 μC5 300 Å (4.6 × 250 mm) column (Phenomenex, Torrance, CA) protected by a Widepore C5 (4 × 3.0 mm) guard cartridge (Phenomenex). The gradient consisted of mobile phase A (0.1% TFA in water (v/v)), and mobile phase B (0.07% TFA in acetonitrile (v/v)) pumped at a flow rate of 1.0 mL/min. Forced degraded samples (oxidation, temperature, and basic and acidic hydrolysis) were used to establish that the method could separate the degradants from the main peak.
HPLC data obtained from the preformulation studies were expressed as the average percentage of the peak area from time 0 ± standard deviation, n = 3. Results were analyzed by one-way analysis of variance (ANOVA) with multiple comparisons of individual time points by using post hoc Bonferroni correction to detect significant differences under different conditions. P-values ≤ 0.05 were considered to be statistically significant, unless specified otherwise.

[3] = Stability in HVF positive for bacterial vaginosis (HVF BV+), detection by LC-MS/MS; details: for detection of RC-101 by LC-MS/MS: nanoLC-SRM MS, qualitative
Protocol: After removing the Instead Softcup®, a speculum examination was performed. Swab specimens of the endocervix were obtained using the Mini-tip Culturette TN collection system (Becton Dickinson, Sparks, MD) according to the manufacturer's guidelines. C. trachomatis and N. gonorrhoeae were detected with an amplified DNA assay based on the simultaneous amplification and detection of target DNA amplification primers and a fluorescent label detector probe. Bacterial vaginosis was detected by Gram stain and assessed by the Nugent score, where score results between 0 and 3 indicate a normal flora, between 4 and 6 indicates an intermediate state, and between 7 and 10 indicates bacterial vaginosis.
The HVF from the Instead Softcup® was removed by centrifugation of the conical tube for 10 min at 5,000 rpm. […] HVF was then removed from the cup and the pH of each HVF sample was measured with Fisher Alkacid pH filter strips (Fisher Scientific). All samples collected on a specific day were pooled to be used for the research studies. If the pH of the individual samples was higher than 5, the sample was not included in the pool but it was stored at -80°C for separate analysis. If the sample contained blood, it was immediately discarded. Samples were prepared as described in Table 1. […] Because of its high viscosity, HVF was measured by weight and not by volume. All solutions were prepared fresh and incubated with HVF (or water) at 37°C for specific periods of time (0, 2, 6, 12, 24, 48, and 72 h), unless specified otherwise. At each time point, the samples were centrifuged at 10,000 rpm for 10 min to separate the supernatant from the epithelial cells as described in the cell processing section. Both parts (supernatant and cells) were stored at -80 ± C until analyzed by LC-MS/MS. To evaluate the influence of freezing the fluid prior to the analysis, the last pool of HVF was divided into two samples: one used fresh (at the time of collection), and the other one stored at -80°C for a 3-month period. After that time period, HVF was thawed and processed for blank and RC-101 solution only, as described in Table 1. HVF samples collected with a high pH value indicative of BV were stored at -80°C as previously mentioned. After confirmation of BV on those fluid samples by Gram stain score, the fluid samples (HVF BV^+) were thawed, pooled, and processed as described in Table 1.
At each time point, the sample was removed from the incubation chamber and centrifuged for 10 min at 10,000 rpm, at 4 ± C to separate the supernatant from cell pellet. Supernatant (100 μL) was added to microcentrifuge filters Ultracel YM-10 Microcon MWCO 10,000 (Millipore Corporation, Bedford, MA), which were pre-washed with Milli Q water to eliminate any trace of propylene glycol from the filters. Samples were centrifuged twice for 15 min at 8,500 rpm, at 4 ± C. The filtrate was collected and frozen at -80 ± C until further analysis. A solution of 3 M urea was added to the cell pellet (1:1 w/w) obtained from the first centrifugation, to lyse the cells. This mixture was vortexed three times for 30 sec, and then centrifuged for 10 min at 10,000 rpm, at 4 ± C. The supernatant obtained from the cell lysate was then added to microcentrifuge filters Ultracel YM-10 Microcon MWCO 10,000 pre-washed with Milli Q water. Samples were centrifuged twice for 15 min at 8,500 rpm, at 4 ± C. The filtrate was collected and frozen at -80 ± C until analysis. […] Samples were thawed and added to PepCleanTM C-18 spin columns (Pierce Biotechnology Inc., Rockford, IL) for desalting, after column conditioning with acetonitrile:water (50:50) and equilibration with 0.1% trifluoroacetic acid. The column was washed three times with 0.1% trifluoroacetic acid, and RC-101 was eluted with acetonitrile:water (60:40) in 0.1% trifluoroacetic acid.

## GICRCICGKGICRCICGR (bicyclic or more) [RC-101]
HIV-1
  effect of the folding change at pH 7 on bioactivity against HIV-1: did not affect bioactivity
[1]; 500 μg/mL, phosphate buffer pH 12, UV scan (data not shown)
  aggregation (increase in UV absorbance 300 to 600 nm): presence of aggregates
[1]; UV spectroscopy, pH 4 and 7, high ionic strength (500 mmol/kg) phosphate buffers
  stability profile with high ionic strength buffers: did not show any significant differences
[2]; pH 3, 10 mM phosphate buffer, 10 days, n = 3, p > 0.83
  change in RC-101 concentration over time (HPLC): no statistically significant decrease
[2]; pH 4, 10 mM phosphate buffer, 10 days, n = 3, p > 0.83
  change in RC-101 concentration over time (HPLC): no statistically significant decrease
[2]; pH 7, 10 mM phosphate buffer, 10 days, n = 3, p > 0.83
  change in RC-101 concentration over time (HPLC): no statistically significant decrease
[2]; pH 12, 10 mM phosphate buffer, first 2 h, n = 3
  change in RC-101 concentration over time (HPLC): significant decrease
[3]; HVF BV+ pool 1:1, 37°C, 2 h
  detection of RC-101 by LC-MS/MS: -
[3]; HVF BV+ pool 1:1, 37°C, 6 h
  detection of RC-101 by LC-MS/MS: -
[3]; HVF BV+ pool 1:1, 37°C, 12 h
  detection of RC-101 by LC-MS/MS: -
[3]; HVF BV+ pool 1:1, 37°C, 24 h
  detection of RC-101 by LC-MS/MS: -
[3]; HVF BV+ pool 1:1, 37°C, 48 h
  detection of RC-101 by LC-MS/MS: -
[3]; HVF BV+ pool (pH 5.8 ± 0.6, stored -80°C) 1:1, 37°C, 0 h
  detection of RC-101 by LC-MS/MS: -
[3]; HVF BV+ pool (stored -80°C), any time point studied, supernatant or cells, 37°C, LC-MS/MS
  detection of RC-101 in HVF BV+: undetectable
